Where two headings read alike, the source gives them in different places.
How the values were obtained:
[1] = tested on: rgRSV224 virus; assay: Antiviral activity: rgRSV224 (GFP) replication in HeLa cells; format: cell-based, respiratory syncytial virus (RSV); conditions: human respiratory syncytial virus, HeLa
Summary of the method: (§1)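 Over 3 days at 37 °C, compound titrations (4-fold steps, nine dilutions) were tested on HeLa cells infected with rgRSV224 (MOI = 1), inhibition of GFP signal giving EC50. In parallel plates, ATP content of HeLa cells after 3-day exposure defined CC50.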

[2] = Cytotoxicity in HeLa cells (ATP content, ATPlite kit); format: cell-based; conditions: human
Summary of the method: as §1

[3] = 72 h, read-out: RSV HELA EC50, HeLa cells, rgRSV224 MOI = 1, GFP expression three days post-virus exposure, averaged data of several repeat experiments
[4] = comparison table 5.3, antiviral RSV assay of Example 5.1

SMILES	EC50 [1, 3] [nM]	CC50 at 3 days ([2]; TOX HELA CC50) [µM]	EC50 [1, 4] [nM]	CC50 at 3 days ([2]; CC50) [µM]
Cc1cc2cc(C(=O)NC[C@](O)(c3cc(C(C)(C)O)c(F)c(-c4ccc(F)cc4)n3)C3CC3)cc(OC3CC3)c2nn1 [compound 265, (-)-N-{2-Cyclopropyl-2-[5-Fluoro-6-(4-Fluorophenyl)-4-(2-Hydroxypropan-2-yl)Pyridin-2-yl]-2-Hydroxyethyl}-8-(Cyclopropyloxy)-3-Methylcinnoline-6-Carboxamide]	0.69	39		
COc1cc(C(=O)NC[C@](O)(c2cc(C(C)(C)O)c(F)c(-c3ccc(F)cc3)n2)C(F)(F)F)cc2cc(C(F)F)nnc12 [compound 266, (-)(Difluoromethyl)-8-Methoxy-N-{3,3,3-Trifluoro-2-[5-Fluoro-6-(4-Fluorophenyl)-4-(2-Hydroxypropan-2-yl)Pyridin-2-yl]-2-Hydroxypropyl}Cinnoline-6-Carboxamide]	3.5	25		
COc1cc(C(=O)NC[C@](O)(c2cc(C(C)(C)O)c(Cl)c(-c3ccc(F)cc3)n2)C(F)(F)F)cc2cc(C(F)F)nnc12 [compound 267, (-)-N-{2-[5-Chloro-6-(4-Fluorophenyl)-4-(2-Hydroxypropan-2-yl)Pyridin-2-yl]-3,3,3-Trifluoro-2-Hydroxypropyl}-3-(Difluoromethyl)-8-Methoxycinnoline-6-Carboxamide]	3	14		
COc1cc(C(=O)NC[C@](O)(c2cc(C(C)(C)O)c(Cl)c(-c3ccc(F)cc3)n2)C2CC2)cc2cc(C(F)F)nnc12 [compound 268, N-{(-)[5-Chloro-6-(4-Fluorophenyl)-4-(2-Hydroxypropanyl)Pyridinyl]CyclopropylHydroxyethyl}-3-(Difluoromethyl)-8-Methoxycinnoline-6-Carboxamide]	0.67	18		
COc1cc(C(=O)NC[C@](O)(c2cc(C(C)(C)O)c(F)c(-c3ccc(F)cc3)n2)C2CC2)cc2cc(C(F)F)nnc12 [compound 269]	1.2	20		
COc1cc(C(=O)NC[C@](O)(c2cc(C(C)(C)O)c(F)c(-c3ccc(F)c(F)c3)n2)C2CC2)cc2cc(C(F)F)nnc12 [compound 270, (-)-N-{2-Cyclopropyl-2-[6-(3,4-Difluorophenyl)-5-Fluoro-4-(2-Hydroxypropan-2-yl)Pyridin-2-yl]-2-Hydroxyethyl}-3-(Difluoromethyl)-8-Methoxycinnoline-6-Carboxamide]	0.84	15		
COc1cc(C(=O)NC[C@](O)(c2cc(C(C)(C)O)c(F)c(-c3ccc(F)cc3)n2)C2CC2)cc2cc(C3CC3)nnc12 [compound 271, 3-Cyclopropyl-N-{(-)-2-Cyclopropyl-2-[5-Fluoro-6-(4-Fluorophenyl)-4-(2-Hydroxypropan-2-yl)Pyridin-2-yl]-2-Hydroxyethyl)-8-Methoxycinnoline-6-Carboxamide]	1.5	11	1.5	11
Cc1cnc2c(OC3CC3)cc(C(=O)NC[C@](O)(c3cc(C(C)(C)O)c(F)c(-c4ccc(F)cc4)n3)C(F)(F)F)cc2c1 [compound 272, (-)8-(Cyclopropyloxy)-3-Methyl-N-{(2S)-3,3,3-Trifluoro-2-[5-Fluoro-6-(4-Fluorophenyl)-4-(2-Hydroxypropan-2-yl)Pyridin-2-yl]-2-Hydroxypropyl}Quinoline-6-Carboxamide]	3.7	17	4	17
COc1cc(C(=O)NC[C@](O)(c2cc(C(C)(C)O)c(F)c(-c3ccc(F)cc3)n2)C(F)(F)F)cc2cc(C)c(F)nc12 [compound 273, (-)Fluoro-8-methoxy-3-methyl-n-(3,3,3-trifluoro(5-fluoro-6-(4-fluorophenyl)-4-(2-hydroxypropanyl)pyridinyl)hydroxypropyl)quinoline-6-carboxamide]	3.81	13		
COc1cc(C(=O)NC[C@](O)(c2cc(C(C)(C)O)c(F)c(-c3ccc(C(F)(F)F)cc3)n2)C(F)(F)F)cc2cc(C)nnc12 [compound 274, (-)Methoxy-3-Methyl-N-(3,3,3-Trifluoro-2-(5-Fluoro-4-(2-Hydroxypropan-2-yl)-6-(4-(Trifluoromethyl)Phenyl)pyridin-2-yl)-2-Hydroxypropyl)Cinnoline-6-Carboxamide]	1.48	11		
COc1cc(C(=O)NC[C@@](O)(c2cc(C(C)(C)O)c(F)c(-c3ccc(F)cc3)n2)C2CC2)cc2cc(C)nnc12 [compound 275]	97	17		
COc1cc(C(=O)NC[C@](O)(c2cc(C(C)(C)NS(C)(=O)=O)c(Cl)c(-c3ccc(F)cc3)n2)C(F)(F)F)cc2cc(C)nnc12 [compound 276, (-)-N-{2-[5-Chloro-6-(4-Fluorophenyl)-4-{2-[(Methanesulfonyl)Amino]Propan-2-yl}Pyridin-2-yl]-3,3,3-Trifluoro-2-Hydroxypropyl}-8-Methoxy-3-Methylcinnoline-6-Carboxamide]	3.8	51		
COc1cc(C(=O)NC[C@](O)(c2cc(C(C)(C)O)c(Cl)c(-c3ccc(F)cc3)n2)C(F)(F)F)cc2cc(C(F)(F)F)nnc12 [compound 277]	16	15		
COc1cc(C(=O)NC[C@](O)(c2cc(C(C)(C)O)c(F)c(-c3ccc(Cl)cc3)n2)C2CC2)cc2cc(C)nnc12 [compound 278]	0.65	29		
COc1cc(C(=O)NC[C@@](O)(c2nc(-c3ccc(F)cc3)cc(C(C)(C)O)c2F)C(F)(F)F)cc2cc(C)nnc12 [compound 280, (+)Methoxy-3-Methyl-N-(3.3.3-Trifluoro-2-(3-Fluoro-6-(4-Fluorophenyl)-4-(2-Hydroxypropan-2-yl)Pyridm-2-yl)-2-Hydroxypropyl)Cinnoline-6-Carboxamide]	449	9.4		
COc1cc(C(=O)NC[C@](O)(c2nc(-c3ccc(F)cc3)cc(C(C)(C)O)c2F)C(F)(F)F)cc2cc(C)nnc12 [compound 281, (-)Methoxy-3-Methyl-N-(3,3,3-Trifluoro-2-(3-Fluoro-6-(4-Fluorophenyl)-4-(2-Hydroxypropan-2-yl)Pyridin-2-yl)-2-Hydroxypropyl)Cinnoline-6-Carboxarmide]	29	24		
COc1cc(C(=O)NC[C@](O)(c2cc(C(C)(C)O)c(Cl)c(-c3ccc(F)cc3)n2)C2CC2)cc2cc(C3CC3)nnc12 [compound 282]	3.2	13		
COc1cc(C(=O)NC[C@](O)(c2cc(C(C)(C)O)c(F)c(-c3ccc(F)cc3)n2)C(C)C)cc2cc(C3CC3)nnc12 [compound 283, (-)Cyclopropyl-N-(2-(5-Fluoro-6-(4-Fluorophenyl)-4-(2-Hydroxypropan-2-yl)Pyridin-2-yl)-2-HydroxyMethylbutyl)-8-Methoxycinnoline-6-Carboxamide]	8.5	12		
COc1cc(C(=O)NC[C@](O)(c2cc(C(C)(C)O)c(F)c(-c3ccc(F)cc3)n2)C2CC2)cc2cc(C(F)(F)F)nnc12 [compound 284]	4.8	16		
COc1cc(C(=O)NC[C@](O)(c2cc(C(C)(C)O)c(F)c(-c3ccc(F)cc3)n2)C(C)C)cc2cc(C(F)F)nnc12 [compound 285, (S)(Difluoromethyl)-N-(2-(5-Fluoro-6-(4-Fluorophenyl)-4-(2-Hydroxypropan-2-yl)Pyridin-2-yl)-2-HydroxyMethylbutyl)-8-Methoxycinnoline-6-Carboxamide]	6.5	16		
COc1cc(C(=O)NC[C@](O)(c2cc(C(C)(C)O)c(F)c(-c3ccc(F)cc3)n2)C(F)(F)F)cc2cc(C3CC3)nnc12 [compound 286, (-)Cyclopropyl-8-Methoxy-N-(3,3,3-Trifluoro-2-(5-Fluoro-6-(4-Fluorophenyl)-4-(2-Hydroxypropan-2-yl)Pyridin-2-yl)-2-Hydroxypropyl)Cinnoline-6-Carboxamide]	2.6	8.9		
COc1cc(C(=O)NC[C@](O)(c2nc(-c3ccc(F)cc3)c(F)c(C(C)(C)O)c2F)C2CC2)cc2cc(C(F)F)nnc12 [compound 287]	8.9	37		
COc1cc(C(=O)NC[C@](O)(c2nc(-c3ccc(F)cc3)c(F)c(C(C)(C)O)c2F)C2CC2)cc2cc(C3CC3)nnc12 [compound 288, (-)Cyclopropyl-N-(2-Cyclopropyl-2-(3,5-Difluoro-6-(4-Fluorophenyl)-4-(2-Hydroxypropan-2-yl)Pyridin-2-yl)-2-Hydroxyethyl)-8-Methoxycinnoline-6-Carboxamide]	4.8	21		
[2H]C([2H])([2H])Oc1cc(C(=O)NC[C@](O)(c2cc(C(C)(C)O)c(F)c(-c3ccc(F)cc3)n2)C2CC2)cc2cc(C3CC3)nnc12 [compound 289, (-)Cyclopropyl-N-(2-Cyclopropyl-2-(5-Fluoro-6-(4-Fluorophenyl)-4-(2-Hydroxypropan-2-yl)Pyridin-2-yl)-2-Hydroxyethyl)-8-(Methoxy-d3)Cinnoline-6-Carboxamide]	1.8	10		
[2H]C([2H])([2H])Oc1cc(C(=O)NC[C@](O)(c2cc(C(C)(C)O)c(F)c(-c3ccc(F)cc3)n2)C2CC2)cc2cc(C)nnc12 [compound 290]	0.21	28		
Cc1cc2cc(C(=O)NC[C@](O)(c3cc(C(C)(C)O)cc(-c4ccc(F)cc4)n3)C(F)(F)F)cc(OC3CC3)c2nn1 [compound 291, (-)Cyclopropoxy-3-Methyl-N-(3,3,3-Trifluoro-2-(6-(4-Fluorophenyl)-4-(2-Hydroxypropan-2-yl)Pyridin-2-yl)-2-Hydroxypropyl)Cinnoline-6-Carboxamide]	15	57		
